Results reported in PMC11063903, “Engineering a human P2X2 receptor with altered ligand selectivity in yeast” (The Journal of Biological Chemistry, 2024).
Where a chain is given by its changes, count along the chain named.

Columns and labels:
[1] = molecular target: T1, P2X2 G353 histidine substitution (G353H) (Homo sapiens, UniProt Q9UBL9, G353H); assay: Site-saturation screen, fast kinetic assay in yeast, G353 histidine; type: cell-based; conditions: 500 μM ATP, ΔF/ΔT normalized to WT
T1 construct: expressed in transfected cells; host or cells: S. cerevisiae BY4741 background
T1 sequence (Q9UBL9 whole entry G353H): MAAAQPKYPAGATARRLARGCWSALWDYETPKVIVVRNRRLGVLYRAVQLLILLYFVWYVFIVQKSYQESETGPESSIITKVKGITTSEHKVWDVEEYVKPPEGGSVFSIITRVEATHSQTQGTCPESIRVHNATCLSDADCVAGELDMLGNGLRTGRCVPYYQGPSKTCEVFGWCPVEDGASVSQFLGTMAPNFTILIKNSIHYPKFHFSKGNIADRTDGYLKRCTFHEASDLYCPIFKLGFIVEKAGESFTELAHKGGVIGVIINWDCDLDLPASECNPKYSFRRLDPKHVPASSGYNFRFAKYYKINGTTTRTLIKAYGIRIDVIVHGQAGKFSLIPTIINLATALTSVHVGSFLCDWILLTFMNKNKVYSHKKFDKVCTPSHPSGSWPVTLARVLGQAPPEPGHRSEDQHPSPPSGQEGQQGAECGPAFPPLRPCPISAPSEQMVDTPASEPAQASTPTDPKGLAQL
Protocol: Figure 2 P2X2 SNP testing.A, homology model of P2X2 with the clinically implicated SNPs highlighted. V60 is highlighted in magenta and G353 is highlighted in dark blue. Lines indicate the positions of the mutations on each of the three monomers. B, zoomed view of the transmembrane region from the purple box in (A). V60 is magenta and G353 is dark blue. The structure is rotated 60° on the right image. C, screening data from site-saturation of the V60 residue in saturating ATP concentration (500 μM f.c.) using the fast kinetic assay. Signal onset values (ΔF/ΔT) are normalized to values from the WT receptor. […] Each of 2 to 3 replicates is represented as a single point. […]
GCaMP assays were performed as follows. […] Cells were loaded onto a black, clear bottom microplate and imaged on a FlexStation3 plate reader. […] Fluorescence was measured with an excitation at 485 nm, and emission 525 nm. […] For strains with mScarlet, fluorescence was read with excitation 570 nm/emission 610 nm. Slopes were calculated from the last 6 points of measurement and were normalized to the positive control samples. Any replicate in which the mScarlet value was measured to be over 2 standard deviations less than the mean for that set was discarded from further analysis.

P2X2 Y299F = molecular target: T2, P2X2 Y299F (Homo sapiens, UniProt Q9UBL9, Y299F); assay: Site-saturation screen of ligand-binding domain with ATP, Y299F; type: cell-based; conditions: 500 μM ATP, ± sd
T2 construct: expressed in transfected cells; host or cells: S. cerevisiae BY4741 background
T2 sequence (Q9UBL9 whole entry Y299F, the tested form may be a part): as the sequence (Q9UBL9 whole entry G353H) above, with Y299F, H353G counted along it
Description: (§1) The yeast P2X2 screening platform poses an opportunity to probe the structure-function of the ligand-binding domain in detail. The conserved P2X “NFR” motif at residues 300 to 302 is directly involved in bonding to the ATP triphosphate moiety ([41]), so we mutagenized residues at or near this motif (298–304), ultimately covering 133 variants (7 sites, 19 residues each). […] We compared our results to phylogenetic data based on a multiple sequence alignment (MSA) from a curated set of 419 related P2X homologs (Figs. 3B, and S5; Table S1).
(§2) Figure 3 Structure-function analysis of the ligand binding domain.A, heat map summarizing the screening data of ATP with seven site-saturation libraries surrounding the NFR-motif. B, sequence-logo plot of the mutagenized residues and percent identity scores as determined from MSA. C, homology model of P2X2 colored by sequence conservation as calculated from a multiple sequence alignment of 419 related P2X genes. Conservation is scored on a log scale where maroon is more conserved and blue is less conserved. D, ATP in the ligand-binding pocket of P2X2. […]
(§3) GCaMP assays were performed as follows. […] Cells were loaded onto a black, clear bottom microplate and imaged on a FlexStation3 plate reader. […] Fluorescence was measured with an excitation at 485 nm, and emission 525 nm. […] For strains with mScarlet, fluorescence was read with excitation 570 nm/emission 610 nm. […]

P2X2 Y299H = molecular target: T3, P2X2 Y299H (Homo sapiens, UniProt Q9UBL9, Y299H); assay: Site-saturation screen of ligand-binding domain with ATP, Y299H; type: cell-based; conditions: 500 μM ATP, ± sd
T3 construct: expressed in transfected cells; host or cells: S. cerevisiae BY4741 background
T3 sequence (Q9UBL9 whole entry Y299H, the tested form may be a part): as the sequence (Q9UBL9 whole entry G353H) above, with Y299H, H353G counted along it
Description: as §1, §2, §3

P2X2 N300S = molecular target: T4, P2X2 N300S (Homo sapiens, UniProt Q9UBL9, N300S); assay: Site-saturation screen of ligand-binding domain with ATP, N300S; type: cell-based; conditions: 500 μM ATP, ± sd
T4 construct: expressed in transfected cells; host or cells: S. cerevisiae BY4741 background
T4 sequence (Q9UBL9 whole entry N300S, the tested form may be a part): as the sequence (Q9UBL9 whole entry G353H) above, with N300S, H353G counted along it
Description: as §1, §2, §3

P2X2 = system: P2X2; parameters: method as in PMID 10570044; conditions: human glia; read-out: EC50, previously published value; cited from earlier work
P2X2 F303Y = molecular target: T5, P2X2 F303Y (Homo sapiens, UniProt Q9UBL9, F303Y); assay: Fast GCaMP-mScarletI assay in yeast, P2X2 F303Y; type: cell-based; conditions: site-saturation screen, 500 μM ATP, ± sd
T5 construct: expressed in transfected cells; host or cells: S. cerevisiae BY4741 background
T5 sequence (Q9UBL9 1-471 F303Y): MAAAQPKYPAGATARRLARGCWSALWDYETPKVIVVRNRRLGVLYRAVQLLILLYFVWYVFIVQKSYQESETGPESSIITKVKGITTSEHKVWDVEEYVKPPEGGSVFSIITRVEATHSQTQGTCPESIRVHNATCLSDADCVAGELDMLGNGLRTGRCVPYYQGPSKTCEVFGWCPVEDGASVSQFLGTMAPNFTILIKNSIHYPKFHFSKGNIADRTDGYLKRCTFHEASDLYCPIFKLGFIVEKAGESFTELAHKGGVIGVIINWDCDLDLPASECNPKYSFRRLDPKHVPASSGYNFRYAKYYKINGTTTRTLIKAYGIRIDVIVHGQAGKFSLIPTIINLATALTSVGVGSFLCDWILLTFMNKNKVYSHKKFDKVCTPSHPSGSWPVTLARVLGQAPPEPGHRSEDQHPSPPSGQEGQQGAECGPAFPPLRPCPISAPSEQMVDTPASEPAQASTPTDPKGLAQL

P2X2 A304W = molecular target: T6, P2X2 A304W (Homo sapiens, UniProt Q9UBL9, A304W); assay: Fast GCaMP-mScarletI assay in yeast, P2X2 A304W; type: cell-based; conditions: site-saturation screen, 500 μM ATP, ± sd
T6 construct: expressed in transfected cells; host or cells: S. cerevisiae BY4741 background
T6 sequence (Q9UBL9 1-471 A304W): T5 sequence (Q9UBL9 1-471 F303Y) with Y303F, A304W

In the case of `Nc1ncnc2c1ncn2[C@@H]1O[C@H](COP(=O)(O)OP(=O)(O)OP(=O)(O)O)[C@@H](O)[C@H]1O` [ATP], the “signaling, % of WT activity” value [1] is reported as 32%, the “signal relative to WT” value (P2X2 Y299F) is reported as 21 ± 12% and the “signal relative to WT” value (P2X2 Y299H) is reported as 11 ± 5%. The “signal, % of WT signaling” value (P2X2 N300S) was 151 ± 16%, the EC50 (P2X2) was 6 µM and the “signal, % of WT signaling” value (P2X2 F303Y) was 113 ± 45%. The “signal, % of WT signaling” value (P2X2 A304W) was 125 ± 47%.
